The target in one test is T1, ARAF (Homo sapiens, UniProt P10398).
T1 sequence (P10398 1-606): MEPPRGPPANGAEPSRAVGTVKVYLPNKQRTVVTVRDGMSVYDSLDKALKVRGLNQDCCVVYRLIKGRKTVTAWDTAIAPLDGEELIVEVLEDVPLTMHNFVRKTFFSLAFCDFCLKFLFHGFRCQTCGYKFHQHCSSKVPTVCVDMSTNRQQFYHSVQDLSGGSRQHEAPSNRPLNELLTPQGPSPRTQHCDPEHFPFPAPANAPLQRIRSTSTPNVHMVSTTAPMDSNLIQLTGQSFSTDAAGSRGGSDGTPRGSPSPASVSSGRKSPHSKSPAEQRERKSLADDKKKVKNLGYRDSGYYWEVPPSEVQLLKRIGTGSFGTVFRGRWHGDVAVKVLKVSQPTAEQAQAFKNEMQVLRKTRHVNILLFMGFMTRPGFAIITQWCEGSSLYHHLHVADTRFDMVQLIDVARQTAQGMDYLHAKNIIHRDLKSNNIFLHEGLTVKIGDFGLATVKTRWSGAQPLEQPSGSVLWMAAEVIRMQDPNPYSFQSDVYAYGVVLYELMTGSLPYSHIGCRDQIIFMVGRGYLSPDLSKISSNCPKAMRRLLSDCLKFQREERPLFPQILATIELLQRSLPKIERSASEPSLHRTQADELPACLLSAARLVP
Nature of the test: Kinase inhibition assay ARAF (similar protocol). The format is biochemical. On the procedure: (§1) b-Raf (V599E) (h) was incubated with 25 mM Tris/HCl pH 7.5, 0.2 mM EGTA, 10 mM DTT, 0.01% Triton X-100, 0.5 mM, sodium orthovandate, 0.5 mM […], 1% glycerol, 34 nM unactive MEK1, 69 nM unactive MAPK2, 0.5 mg/mL myelin basic protein, and 10 mM Magnesium acetate and […] (specific activity and concentration as required). The reaction was initiated by the addition of the Mg/ATP mix. After incubation for 40 minutes at room temperature, the reaction was stopped by the addition of phosphoric acid to a concentration of 0.5%. 10 μL of the reaction was then spotted onto a P30 filtermat and washed four times for 4 minutes in 0.425% phosphoric acid and once in methanol prior to drying and scintillation counting. Similar protocols were used for other kinase assays employing the kinase of interest to generate the data in Table 1.

The target of a further test is B-Raf (V600E) (h) (Homo sapiens, UniProt P15056, V600E). Nature of the test: Kinase inhibition assay B-Raf (V600E) (h), radiometric 33P-ATP filter assay. In kind it is biochemical. The conditions noted are these: read-out: IC50(nM) BRAF^V600E. The procedure: as §1
Sequence of B-Raf (V600E) (h) (P15056 whole entry V600E): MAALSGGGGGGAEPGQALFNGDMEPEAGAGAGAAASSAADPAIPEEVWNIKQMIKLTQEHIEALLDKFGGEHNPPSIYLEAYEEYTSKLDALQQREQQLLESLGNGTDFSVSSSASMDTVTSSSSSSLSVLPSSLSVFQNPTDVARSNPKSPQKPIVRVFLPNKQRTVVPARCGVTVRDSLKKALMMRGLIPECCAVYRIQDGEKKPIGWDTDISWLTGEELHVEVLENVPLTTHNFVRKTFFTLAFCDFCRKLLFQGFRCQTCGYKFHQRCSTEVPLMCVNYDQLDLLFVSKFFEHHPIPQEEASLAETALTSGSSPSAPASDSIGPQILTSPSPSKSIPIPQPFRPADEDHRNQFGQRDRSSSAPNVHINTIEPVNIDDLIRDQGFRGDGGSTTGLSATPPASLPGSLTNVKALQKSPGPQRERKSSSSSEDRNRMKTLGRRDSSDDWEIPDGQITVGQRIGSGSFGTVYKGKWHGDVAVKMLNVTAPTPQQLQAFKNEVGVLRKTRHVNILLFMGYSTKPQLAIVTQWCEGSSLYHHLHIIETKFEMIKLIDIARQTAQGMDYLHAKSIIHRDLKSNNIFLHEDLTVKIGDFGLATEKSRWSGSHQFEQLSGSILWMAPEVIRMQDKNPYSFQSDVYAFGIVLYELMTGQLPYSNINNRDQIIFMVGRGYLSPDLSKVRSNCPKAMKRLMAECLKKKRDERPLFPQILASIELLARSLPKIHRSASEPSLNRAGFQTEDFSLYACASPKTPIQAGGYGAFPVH
A further test concerns the target T2, BRAF^V600E (Homo sapiens, UniProt P15056, V600E).
T2 construct: A375 or SK-Mel-28 cells were obtained from ATCC; host or cells: A375 or SK-Mel-28
Description: Cellular degradation assay, Western blot of BRAF^V600E. The format is cell-based. The conditions noted are these: for degradation of BRAF^V600E by immunoblot (FIGS. 4 and 5): A375 human melanoma cells, 24 hrs; for DCmax(%) BRAF^V600E / DC50: Table 1, cells treated 24 hours, Western blot; for DC50: read-out: DC50(nM) BRAF^V600E. The procedure:
Cell culture and compound treatment: A375 or SK-Mel-28 cells were obtained from ATCC and cultured in Dulbecco's Modified Eagle Media (DMEM) supplemented with 10% FBS, penicillin and streptomycin, at 37° C., 5% CO2. Cells grown in 6-well plates were treated for 24 hours with test compounds (solubilized in DMSO) or 0.1% DMSO vehicle control. Cells were harvested by first washing with 1× phosphate-buffered saline (PBS), then scrapping into 1 ml of PBS supplemented with 1 mM phenylmethylsulfonylflouride (PMSF). Cell pellets were obtained after a centrifugation at 300-350×g for 2 min, and immediately snap frozen in liquid nitrogen.
Cell lysis and Western blot analysis: Cell pellets were thawed and lysed by pipetting in lysis buffer (50 mM HEPES (pH 7.4), 150 mM NaCl, 5 mM EDTA, 0.5% NP-40, 5 mM NaF, 10% glycerol), with Roche protease inhibitor cocktail (5056489001) and phosphatase inhibitor cocktail PhosStop (4906845001) added fresh before use. The whole cell lysate was clarified by centrifugation at 15,000-20,000×g for 20 min and supernatant was collected. Total protein concentration in the clarified lysate was determination by Bradford assay (Bio-Rad), and 30-50 ug of protein was separated through SDS-PAGE, transferred onto nitrocellulose membrane and subject to standard immunoblotting protocol. Band intensities were quantified by Bio-Rad Image Lab software. Antibodies to B-Raf (sc-5284), A-Raf (sc-166771), phosphor MEK1/2, pS218/222 (sc-7995), phosphor ERK1/2 (sc-7383) were purchased from Santa Cruz; C-Raf (9422), MEK1/2 (9122), ERK1/2 (9102) from Cell Signaling; p27 (610242) from BD Biosciences. Antibody to the loading control α-tubulin was obtained from Sigma-Aldrich (6199).
A general note: Immunoblotting shows a protein as a band on a membrane.

In a further test the target is CRAF (Homo sapiens, UniProt P04049). Description: Kinase inhibition assay CRAF (similar protocol). In kind it is biochemical. On the procedure:
as §1

A further test deals with BRAF (Homo sapiens, UniProt P15056). Description: Kinase inhibition assay BRAF (similar protocol). In kind it is biochemical. The procedure: as §1
Sequence of BRAF (P15056 whole entry): as the sequence (P15056 whole entry V600E) above, with E600V counted along it

Sequence of CRAF (P04049 whole entry): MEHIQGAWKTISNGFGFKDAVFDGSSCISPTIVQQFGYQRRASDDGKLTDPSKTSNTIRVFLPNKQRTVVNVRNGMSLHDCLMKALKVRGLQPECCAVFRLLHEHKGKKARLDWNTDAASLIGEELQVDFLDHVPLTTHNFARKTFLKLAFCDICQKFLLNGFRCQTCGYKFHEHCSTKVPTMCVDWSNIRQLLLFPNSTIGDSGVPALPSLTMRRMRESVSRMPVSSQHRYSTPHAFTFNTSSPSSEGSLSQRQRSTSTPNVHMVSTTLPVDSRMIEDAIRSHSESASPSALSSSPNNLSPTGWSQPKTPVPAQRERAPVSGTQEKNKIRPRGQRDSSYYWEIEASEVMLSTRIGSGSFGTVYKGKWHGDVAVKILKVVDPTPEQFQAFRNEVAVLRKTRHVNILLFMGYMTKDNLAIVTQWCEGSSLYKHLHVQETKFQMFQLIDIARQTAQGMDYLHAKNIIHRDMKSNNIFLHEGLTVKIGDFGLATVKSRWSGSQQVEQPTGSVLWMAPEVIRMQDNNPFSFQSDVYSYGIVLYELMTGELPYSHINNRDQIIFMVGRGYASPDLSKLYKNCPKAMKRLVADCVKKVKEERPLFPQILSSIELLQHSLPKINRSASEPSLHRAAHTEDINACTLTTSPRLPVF
T2 sequence (P15056 whole entry V600E): as the sequence (P15056 whole entry V600E) above

Turning to `CCCS(=O)(=O)Nc1ccc(F)c(-n2cc(-c3cncnc3)c3nc(N(C)C4CCN(C(=O)CCOCCOCCOCCNc5cccc6c5C(=O)N(C5CCC(=O)NC5=O)C6=O)CC4)ccc32)c1F` (centres unmarked) [Entry 2], the values for the half-maximal inhibitory concentration (IC50) at ARAF, at B-Raf (V600E) (h) and against CRAF were above 10000 nM, 47 nM and 22 nM, respectively. Further, the “degradation of BRAF^V600E by immunoblot (FIGS. 4 and 5)” value (from here on “degradation … (FIGS. 4 and 5)”) on BRAF^V600E (listed as Pmd-PEG3-Dabrafenib#1) is reported as “No degradation”. Further, at BRAF^V600E, the “DCmax(%) BRAF^V600E” value came to 0%.

With `CCCS(=O)(=O)Nc1ccc(F)c(-n2cc(-c3cncnc3)c3nc(N(C)C4CCN(CC)CC4)ccc32)c1F` [Entry 15, N-[3-[5-[(1-ethylpiperidin-4-yl)-methylamino]-3-pyrimidin-5-ylpyrrolo[3,2-b]pyridine-1-yl]-2,4-difluorophenyl]propane-1-sulfonamide, reference compound], the IC50 (in general, the concentration that gives 50% inhibition) amounted to 323 nM on ARAF, 31 nM on B-Raf (V600E) (h) and 64 nM at CRAF. The “DCmax(%) BRAF^V600E” value on BRAF^V600E worked out at 0%.

For `CCCS(=O)(=O)Nc1ccc(F)c(-n2cc(-c3cncnc3)c3nc(N(C)C4CCN(C(=O)CCOCCOCCOCCNc5cccc6c5C(=O)N(C5CCC(=O)NC5=O)C6=O)CC4)ccc32)c1F` (centres unmarked) [Entry 16, N-(3-(5-((1-(3-(2-(2-(2-((2-(2,6-dioxopiperidin-3-yl)-1,3-dioxoisoindolin-4-yl)amino)ethoxy)ethoxy)ethoxy)propanoyl)piperidin-4-yl)(methyl)amino)-3-(pyrimidin-5-yl)-1H-pyrrolo[3,2-b]pyridin-1-yl)-2,4-difluorophenyl)propane-1-sulfonamide], the IC50 at ARAF was above 10000 nM; on B-Raf (V600E) (h), 65 nM; at CRAF it was 532 nM. The “degradation … (FIGS. 4 and 5)” value at BRAF^V600E is “Degradation of BRAF^V600E was observed”. Moreover, the “DCmax(%) BRAF^V600E” value at BRAF^V600E came out at 60%. Also, at BRAF^V600E, the DC50 (usually the concentration at which degradation of the target reaches its halfway point) stood at 10 nM.

Take `CCCS(=O)(=O)Nc1ccc(F)c(-n2cc(-c3cncnc3)c3nc(N(C)C4CCN(C(=O)CCOCCOCCOCCOCCOCCNc5cccc6c5C(=O)N(C5CCC(=O)NC5=O)C6=O)CC4)ccc32)c1F` (centres unmarked) [Entry 18, N-(3-(5-((1-(1-((2-(2,6-dioxopiperidin-3-yl)-1,3-dioxoisoindolin-4-yl)amino)-3,6,9,12,15-pentaoxaoctadecan-18-oyl)piperidin-4-yl)(methyl)amino)-3-(pyrimidin-5-yl)-1H-pyrrolo[3,2-b]pyridin-1-yl)-2,4-difluorophenyl)propane-1-sulfonamide]: the IC50 against BRAF was 66 nM; against ARAF it was 3620 nM; at B-Raf (V600E) (h), 25 nM; on CRAF it was 223 nM. In addition, at BRAF^V600E, the “degradation … (FIGS. 4 and 5)” value is “Degradation of BRAF^V600E was observed”. The “DCmax(%) BRAF^V600E” value at BRAF^V600E came out at 73%. Moreover, the DC50 at BRAF^V600E came to 50 nM.

`CCCS(=O)(=O)Nc1ccc(F)c(-n2cc(-c3cncnc3)c3nc(N(C)C4CCN(C(=O)CCOCCOCCOCCOCCOCCOCCNc5cccc6c5C(=O)N(C5CCC(=O)NC5=O)C6=O)CC4)ccc32)c1F` (centres unmarked) [Entry 19, N-(3-(5-((1-(1-((2-(2,6-dioxopiperidin-3-yl)-1,3-dioxoisoindolin-4-yl)amino)-3,6,9,12,15,18-hexaoxaheneicosan-21-oyl)piperidin-4-yl)(methyl)amino)-3-(pyrimidin-5-yl)-1H-pyrrolo[3,2-b]pyridin-1-yl)-2,4-difluorophenyl)propane-1-sulfonamide] registered an IC50 against ARAF of 6550 nM. In addition, the IC50 on B-Raf (V600E) (h) was 83 nM. Also, on BRAF^V600E, the “degradation … (FIGS. 4 and 5)” value is “Degradation of BRAF^V600E was observed”; the “DCmax(%) BRAF^V600E” value is 60%; the DC50 was 100 nM. Besides, the IC50 against CRAF was determined as 542 nM.

`CCCS(=O)(=O)Nc1ccc(F)c(-n2cc(-c3cncnc3)c3nc(N(C)C4CCN(C(=O)CCOCCOCCOCCOCCOCCOCCOCCOCCNc5cccc6c5C(=O)N(C5CCC(=O)NC5=O)C6=O)CC4)ccc32)c1F` (centres unmarked) [Entry 20, N-(3-(5-((1-(1-((2-(2,6-dioxopiperidin-3-yl)-1,3-dioxoisoindolin-4-yl)amino)-3,6,9,12,15,18,21,24-octaoxaheptacosan-27-oyl)piperidin-4-yl)(methyl)amino)-3-(pyrimidin-5-yl)-1H-pyrrolo[3,2-b]pyridin-1-yl)-2,4-difluorophenyl)propane-1-sulfonamide]: the values for the IC50 at ARAF, on B-Raf (V600E) (h) and at CRAF were 4910 nM, 85 nM and 592 nM, respectively. Besides, the “degradation … (FIGS. 4 and 5)” value on BRAF^V600E was “Degradation of BRAF^V600E was observed”. In addition, the “DCmax(%) BRAF^V600E” value at BRAF^V600E is reported as 40%. In addition, the DC50 at BRAF^V600E came to 75 nM.

On ARAF, `CCCS(=O)(=O)Nc1ccc(F)c(-n2cc(-c3cncnc3)c3nc(N(C)C4CCN(C(=O)CCC(=O)NCCCOCCOCCOCCCNc5cccc6c5C(=O)N(C5CCC(=O)NC5=O)C6=O)CC4)ccc32)c1F` (centres unmarked) [Entry 21, 4-(4-((1-(2,6-Difluoro-3-(propylsulfonamido)phenyl)-3-(pyrimidin-5-yl)-1H-pyrrolo[3,2-b]pyridin-5-yl)(methyl)amino)piperidin-1-yl)-N-(3-(2-(2-(3-((2-(2,6-dioxopiperidin-3-yl)-1,3-dioxoisoindolin-4-yl)amino)propoxy)ethoxy)ethoxy)propyl)-4-oxobutanamide] showed an IC50 of 3340 nM. On B-Raf (V600E) (h), the IC50 came out at 82 nM. Further, at BRAF^V600E, the “degradation … (FIGS. 4 and 5)” value is “Degradation of BRAF^V600E was observed”; the “DCmax(%) BRAF^V600E” value turned out to be 29%; the DC50 worked out at 20 nM. Besides, it took 468 nM to reach half-maximal inhibition against CRAF (IC50).

Turning to `CC(C)(C)c1nc(-c2cccc(NS(=O)(=O)c3c(F)cccc3F)c2F)c(-c2ccnc(N)n2)s1` [dabrafenib, reference compound], the “degradation of BRAF^V600E by immunoblot (FIG. 3A)” value at BRAF^V600E (dabrafenib 20 nM, PROTAC inhibitors 50 nM) is given as “no degradation”.
